ChEMBL document CHEMBL4507294, “Data for DCP probe MSD-CYP11B2” (2021)

How the values were obtained:
[1] = target: Serine/threonine-protein kinase ULK1 (Homo sapiens) (UniProt O75385); conditions: Compound concentration 1000.0 nM
[2] = target: BMP-2-inducible protein kinase (Homo sapiens) (UniProt Q9NSY1); conditions: Compound concentration 1000.0 nM
[3] = target: Aurora kinase C (Homo sapiens) (UniProt Q9UQB9); conditions: Compound concentration 1000.0 nM
[4] = target: Casein kinase II subunit alpha' (Homo sapiens) (UniProt P19784); conditions: Compound concentration 1000.0 nM
[5] = test system: Tyrosine-protein kinase ABL1 (Homo sapiens), P00519 [Q252H]; conditions: Compound concentration 1000.0 nM
[6] = target: Testis-specific serine/threonine-protein kinase 3 (Homo sapiens) (UniProt Q96PN8); conditions: Compound concentration 1000.0 nM
[7] = target: Serine/threonine-protein kinase MARK1 (Homo sapiens) (UniProt Q9P0L2); conditions: Compound concentration 1000.0 nM
[8] = target: Phosphatidylinositol 5-phosphate 4-kinase type-2 gamma (Homo sapiens) (UniProt Q8TBX8); conditions: Compound concentration 1000.0 nM
[9] = target: Inhibitor of nuclear factor kappa-B kinase subunit beta (Homo sapiens) (UniProt O14920); conditions: Compound concentration 1000.0 nM
[10] = target: Mitogen-activated protein kinase 6 (Homo sapiens) (UniProt Q16659); conditions: Compound concentration 1000.0 nM
[11] = target: Death-associated protein kinase 1 (Homo sapiens) (UniProt P53355); conditions: Compound concentration 1000.0 nM
[12] = target: Leucine-rich repeat serine/threonine-protein kinase 2 (Homo sapiens) (UniProt Q5S007); conditions: Compound concentration 1000.0 nM
[13] = target: Mitogen-activated protein kinase 3 (Homo sapiens) (UniProt P27361); conditions: Compound concentration 1000.0 nM
[14] = target: Serine/threonine-protein kinase SBK1 (Homo sapiens) (UniProt Q52WX2); conditions: Compound concentration 1000.0 nM
[15] = target: Alpha-2A adrenergic receptor (Homo sapiens) (UniProt P08913); conditions: Compound concentration 10.0 uM
[16] = target: Serine/threonine-protein kinase TNNI3K (Homo sapiens) (UniProt Q59H18); conditions: Compound concentration 1000.0 nM
[17] = test system: Tyrosine-protein kinase ABL1 (Homo sapiens), P00519 [F317L]; conditions: Compound concentration 1000.0 nM
[18] = target: Cyclin-dependent kinase 4 (Homo sapiens) (UniProt P11802); conditions: Compound concentration 1000.0 nM
[19] = test system: ALK tyrosine kinase receptor (Homo sapiens), Q9UM73 [L1196M]; conditions: Compound concentration 1000.0 nM
[20] = target: Calcium/calmodulin-dependent protein kinase kinase 2 (Homo sapiens) (UniProt Q96RR4); conditions: Compound concentration 1000.0 nM
[21] = target: 5-hydroxytryptamine receptor 7 (Homo sapiens) (UniProt P34969); conditions: Compound concentration 10.0 uM
Sequence of 5-hydroxytryptamine receptor 7 (Homo sapiens) (P34969 whole entry): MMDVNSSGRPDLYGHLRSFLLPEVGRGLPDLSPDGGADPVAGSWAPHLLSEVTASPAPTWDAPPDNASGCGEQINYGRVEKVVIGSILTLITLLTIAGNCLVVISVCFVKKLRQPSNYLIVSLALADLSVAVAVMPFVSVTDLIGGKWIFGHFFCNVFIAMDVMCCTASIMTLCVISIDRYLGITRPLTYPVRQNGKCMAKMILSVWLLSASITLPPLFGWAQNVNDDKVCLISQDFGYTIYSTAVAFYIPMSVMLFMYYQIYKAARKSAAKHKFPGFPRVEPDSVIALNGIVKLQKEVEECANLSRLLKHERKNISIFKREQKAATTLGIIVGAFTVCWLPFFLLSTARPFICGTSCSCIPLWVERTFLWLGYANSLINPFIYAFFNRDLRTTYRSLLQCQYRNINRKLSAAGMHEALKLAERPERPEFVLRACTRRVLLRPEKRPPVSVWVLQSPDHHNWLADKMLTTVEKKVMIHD

[22] = target: Serine/threonine-protein kinase 10 (Homo sapiens) (UniProt O94804); conditions: Compound concentration 1000.0 nM
[23] = test system: Receptor-type tyrosine-protein kinase FLT3 (Homo sapiens), P36888 [UNDEFINED MUTATION]; conditions: Compound concentration 1000.0 nM
[24] = target: Muscle, skeletal receptor tyrosine-protein kinase (Homo sapiens) (UniProt O15146); conditions: Compound concentration 1000.0 nM
[25] = target: Activin receptor type-1 (Homo sapiens) (UniProt Q04771); conditions: Compound concentration 1000.0 nM
[26] = target: Serine/threonine-protein kinase pim-2 (Homo sapiens) (UniProt Q9P1W9); conditions: Compound concentration 1000.0 nM
[27] = target: Ephrin type-B receptor 3 (Homo sapiens) (UniProt P54753); conditions: Compound concentration 1000.0 nM
[28] = target: AP2-associated protein kinase 1 (Homo sapiens) (UniProt Q2M2I8); conditions: Compound concentration 1000.0 nM
[29] = target: Tyrosine-protein kinase ABL2 (Homo sapiens) (UniProt P42684); conditions: Compound concentration 1000.0 nM
Sequence of Tyrosine-protein kinase ABL2 (Homo sapiens) (P42684 whole entry): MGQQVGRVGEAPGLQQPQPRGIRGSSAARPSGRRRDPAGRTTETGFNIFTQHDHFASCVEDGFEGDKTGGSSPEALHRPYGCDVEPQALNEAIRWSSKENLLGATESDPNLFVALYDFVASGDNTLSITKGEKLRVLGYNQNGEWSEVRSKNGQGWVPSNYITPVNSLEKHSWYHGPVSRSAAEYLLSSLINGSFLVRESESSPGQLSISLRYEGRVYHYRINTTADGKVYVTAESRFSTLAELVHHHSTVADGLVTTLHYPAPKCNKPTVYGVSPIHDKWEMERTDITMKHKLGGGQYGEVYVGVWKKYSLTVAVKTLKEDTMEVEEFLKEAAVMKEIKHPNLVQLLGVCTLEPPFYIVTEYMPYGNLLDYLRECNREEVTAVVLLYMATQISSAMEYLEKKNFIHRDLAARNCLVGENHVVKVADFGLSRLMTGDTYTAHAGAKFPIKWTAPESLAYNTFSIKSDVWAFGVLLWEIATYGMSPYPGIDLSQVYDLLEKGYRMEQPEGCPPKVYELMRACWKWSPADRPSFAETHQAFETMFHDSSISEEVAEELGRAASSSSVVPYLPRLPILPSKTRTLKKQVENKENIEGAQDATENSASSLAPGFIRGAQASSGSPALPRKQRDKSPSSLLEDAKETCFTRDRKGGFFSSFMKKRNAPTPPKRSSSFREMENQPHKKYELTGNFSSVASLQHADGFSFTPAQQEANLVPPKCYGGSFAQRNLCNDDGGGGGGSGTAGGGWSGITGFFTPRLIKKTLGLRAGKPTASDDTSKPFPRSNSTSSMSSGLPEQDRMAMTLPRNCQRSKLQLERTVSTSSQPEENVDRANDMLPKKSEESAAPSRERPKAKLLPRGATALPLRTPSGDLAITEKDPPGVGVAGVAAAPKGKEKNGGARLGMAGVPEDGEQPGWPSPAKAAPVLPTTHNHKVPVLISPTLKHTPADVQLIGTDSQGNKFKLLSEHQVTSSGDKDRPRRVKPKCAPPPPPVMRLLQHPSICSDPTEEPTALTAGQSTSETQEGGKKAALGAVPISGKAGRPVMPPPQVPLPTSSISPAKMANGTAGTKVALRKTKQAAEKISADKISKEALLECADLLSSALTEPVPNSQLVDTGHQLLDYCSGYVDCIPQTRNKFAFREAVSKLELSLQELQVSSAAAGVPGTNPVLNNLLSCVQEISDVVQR

[30] = test system: Mast/stem cell growth factor receptor Kit (Homo sapiens), P10721 [L576P]; conditions: Compound concentration 1000.0 nM
[31] = target: Tyrosine-protein kinase receptor UFO (Homo sapiens) (UniProt P30530); conditions: Compound concentration 1000.0 nM
[32] = target: SRSF protein kinase 2 (Homo sapiens) (UniProt P78362); conditions: Compound concentration 1000.0 nM
[33] = target: Cyclin-dependent kinase 2 homolog (Plasmodium falciparum (isolate 3D7)) (UniProt P61075); conditions: Compound concentration 1000.0 nM
[34] = target: Phosphatidylinositol 5-phosphate 4-kinase type-2 beta (Homo sapiens) (UniProt P78356); conditions: Compound concentration 1000.0 nM
[35] = target: Interleukin-1 receptor-associated kinase 1 (Homo sapiens) (UniProt P51617); conditions: Compound concentration 1000.0 nM
Sequence of Interleukin-1 receptor-associated kinase 1 (Homo sapiens) (P51617 whole entry, looked up): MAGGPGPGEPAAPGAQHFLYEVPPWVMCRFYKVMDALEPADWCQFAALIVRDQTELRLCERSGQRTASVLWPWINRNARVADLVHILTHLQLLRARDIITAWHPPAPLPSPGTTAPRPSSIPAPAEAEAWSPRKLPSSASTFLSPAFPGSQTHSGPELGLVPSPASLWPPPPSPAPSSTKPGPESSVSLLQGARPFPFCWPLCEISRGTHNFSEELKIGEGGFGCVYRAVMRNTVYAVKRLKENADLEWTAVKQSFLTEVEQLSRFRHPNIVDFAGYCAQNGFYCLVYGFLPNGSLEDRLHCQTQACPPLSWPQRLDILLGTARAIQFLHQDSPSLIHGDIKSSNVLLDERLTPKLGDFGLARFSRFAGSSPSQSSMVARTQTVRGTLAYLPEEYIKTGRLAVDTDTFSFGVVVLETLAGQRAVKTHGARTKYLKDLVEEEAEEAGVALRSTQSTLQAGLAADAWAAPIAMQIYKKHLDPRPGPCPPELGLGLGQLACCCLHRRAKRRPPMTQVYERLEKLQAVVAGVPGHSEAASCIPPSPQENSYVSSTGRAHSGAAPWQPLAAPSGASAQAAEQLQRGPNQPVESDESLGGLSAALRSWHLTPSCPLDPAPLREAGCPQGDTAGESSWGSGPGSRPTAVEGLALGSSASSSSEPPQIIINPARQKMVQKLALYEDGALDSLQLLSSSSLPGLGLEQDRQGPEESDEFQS

[36] = target: Dual specificity protein kinase CLK1 (Homo sapiens) (UniProt P49759); conditions: Compound concentration 1000.0 nM
[37] = target: Macrophage colony-stimulating factor 1 receptor (Homo sapiens) (UniProt P07333); conditions: Compound concentration 1000.0 nM
[38] = target: Serine/threonine-protein kinase pim-1 (Homo sapiens) (UniProt P11309); conditions: Compound concentration 1000.0 nM
[39] = test system: Phosphatidylinositol 4,5-bisphosphate 3-kinase catalytic subunit alpha isoform (Homo sapiens), P42336 [Q546K]; conditions: Compound concentration 1000.0 nM
[40] = target: Phosphatidylinositol 4,5-bisphosphate 3-kinase catalytic subunit delta isoform (Homo sapiens) (UniProt O00329); conditions: Compound concentration 1000.0 nM
[41] = target: Alpha-2C adrenergic receptor (Homo sapiens) (UniProt P18825); conditions: Compound concentration 10.0 uM
Sequence of Alpha-2C adrenergic receptor (Homo sapiens) (P18825 whole entry): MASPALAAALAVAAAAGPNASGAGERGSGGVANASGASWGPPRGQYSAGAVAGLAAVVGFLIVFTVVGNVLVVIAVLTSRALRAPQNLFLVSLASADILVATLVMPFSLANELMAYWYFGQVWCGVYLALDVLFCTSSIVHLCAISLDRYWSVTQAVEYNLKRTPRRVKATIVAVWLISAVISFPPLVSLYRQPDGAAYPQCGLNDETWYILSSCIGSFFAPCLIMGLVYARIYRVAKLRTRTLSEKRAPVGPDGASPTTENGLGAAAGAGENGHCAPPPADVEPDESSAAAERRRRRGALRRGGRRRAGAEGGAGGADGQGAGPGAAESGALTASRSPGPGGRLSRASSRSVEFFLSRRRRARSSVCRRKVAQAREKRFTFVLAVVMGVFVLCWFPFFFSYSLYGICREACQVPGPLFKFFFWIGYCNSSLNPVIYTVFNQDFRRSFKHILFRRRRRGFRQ

[42] = target: Dual specificity mitogen-activated protein kinase kinase 5 (Homo sapiens) (UniProt Q13163); conditions: Compound concentration 1000.0 nM
Sequence of Dual specificity mitogen-activated protein kinase kinase 5 (Homo sapiens) (Q13163 whole entry): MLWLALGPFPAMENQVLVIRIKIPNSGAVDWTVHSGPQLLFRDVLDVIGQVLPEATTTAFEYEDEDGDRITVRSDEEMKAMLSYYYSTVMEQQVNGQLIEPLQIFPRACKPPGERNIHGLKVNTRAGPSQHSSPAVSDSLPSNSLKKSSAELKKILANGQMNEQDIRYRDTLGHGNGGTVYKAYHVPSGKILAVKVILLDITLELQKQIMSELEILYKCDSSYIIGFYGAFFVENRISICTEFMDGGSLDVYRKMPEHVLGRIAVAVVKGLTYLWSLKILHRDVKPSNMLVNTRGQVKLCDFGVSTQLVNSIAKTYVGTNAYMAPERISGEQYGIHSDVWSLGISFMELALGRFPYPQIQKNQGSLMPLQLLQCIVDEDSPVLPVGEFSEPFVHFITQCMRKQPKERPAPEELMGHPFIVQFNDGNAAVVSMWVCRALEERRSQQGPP

[43] = target: Sodium-dependent dopamine transporter (Homo sapiens) (UniProt Q01959); conditions: Compound concentration 10.0 uM
[44] = target: Serine/threonine-protein kinase NIM1 (Homo sapiens) (UniProt Q8IY84); conditions: Compound concentration 1000.0 nM
Sequence of Serine/threonine-protein kinase NIM1 (Homo sapiens) (Q8IY84 whole entry): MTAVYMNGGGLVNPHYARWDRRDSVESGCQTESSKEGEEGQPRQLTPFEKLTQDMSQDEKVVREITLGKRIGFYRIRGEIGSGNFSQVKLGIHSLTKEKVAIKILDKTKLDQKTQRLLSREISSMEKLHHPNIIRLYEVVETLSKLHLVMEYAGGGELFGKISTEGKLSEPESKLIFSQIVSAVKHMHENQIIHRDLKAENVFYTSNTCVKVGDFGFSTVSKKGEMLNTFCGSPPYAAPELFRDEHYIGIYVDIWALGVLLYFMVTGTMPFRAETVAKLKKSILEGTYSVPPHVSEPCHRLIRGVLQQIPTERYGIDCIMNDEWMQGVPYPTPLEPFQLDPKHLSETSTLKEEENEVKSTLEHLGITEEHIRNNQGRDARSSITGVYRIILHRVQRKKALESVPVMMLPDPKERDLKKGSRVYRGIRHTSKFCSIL

[45] = test system: Tyrosine-protein kinase ABL1 (Homo sapiens), P00519 [F317L]; conditions: Compound concentration 1000.0 nM; remark: listed apart in the source

Sequence of BMP-2-inducible protein kinase (Homo sapiens) (Q9NSY1 whole entry, looked up): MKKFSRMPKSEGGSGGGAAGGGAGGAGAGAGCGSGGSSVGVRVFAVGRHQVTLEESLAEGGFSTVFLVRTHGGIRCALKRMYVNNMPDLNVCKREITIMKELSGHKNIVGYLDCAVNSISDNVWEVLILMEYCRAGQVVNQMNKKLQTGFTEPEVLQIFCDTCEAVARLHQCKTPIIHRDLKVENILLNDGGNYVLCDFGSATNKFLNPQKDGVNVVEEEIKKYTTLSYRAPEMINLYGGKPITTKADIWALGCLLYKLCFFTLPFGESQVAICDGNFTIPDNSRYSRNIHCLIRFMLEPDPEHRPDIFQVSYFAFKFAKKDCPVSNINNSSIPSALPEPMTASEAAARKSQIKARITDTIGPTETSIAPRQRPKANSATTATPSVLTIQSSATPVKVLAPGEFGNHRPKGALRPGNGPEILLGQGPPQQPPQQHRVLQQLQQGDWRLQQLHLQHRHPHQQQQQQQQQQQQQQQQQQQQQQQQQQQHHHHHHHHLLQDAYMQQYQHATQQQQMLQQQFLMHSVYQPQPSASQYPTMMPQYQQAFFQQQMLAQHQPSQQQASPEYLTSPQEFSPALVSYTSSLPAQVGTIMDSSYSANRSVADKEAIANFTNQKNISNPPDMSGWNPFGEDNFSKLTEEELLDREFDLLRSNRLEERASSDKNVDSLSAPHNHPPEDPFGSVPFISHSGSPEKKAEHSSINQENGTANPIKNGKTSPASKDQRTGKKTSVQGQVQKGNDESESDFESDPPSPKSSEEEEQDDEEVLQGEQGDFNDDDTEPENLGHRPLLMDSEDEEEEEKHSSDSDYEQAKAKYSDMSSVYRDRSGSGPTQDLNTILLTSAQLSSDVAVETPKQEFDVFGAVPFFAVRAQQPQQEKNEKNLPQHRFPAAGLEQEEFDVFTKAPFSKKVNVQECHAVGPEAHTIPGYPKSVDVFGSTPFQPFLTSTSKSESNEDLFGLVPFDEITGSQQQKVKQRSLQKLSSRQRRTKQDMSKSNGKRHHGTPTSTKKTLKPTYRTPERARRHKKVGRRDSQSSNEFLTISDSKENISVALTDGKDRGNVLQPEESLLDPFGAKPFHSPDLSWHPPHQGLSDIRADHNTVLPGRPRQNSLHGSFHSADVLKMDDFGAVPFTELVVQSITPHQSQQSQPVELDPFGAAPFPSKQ

Work on `CC(C)(O)c1cncc(-c2nc3ccc(F)cc3n2C2CC2)c1` [MSD-CYP11B2] yielded a residual activity [1] of 100%, a residual activity [2] of 100% and a residual activity [3] of 100%. The residual activity [4] was 100%, the residual activity [5] was 89% and the residual activity [6] was 84%. For the same compound, the residual activity [7] was 100%, the residual activity [8] was 100% and the residual activity [9] was 100%. The residual activity [10] was 100%, the residual activity [11] was 100% and the residual activity [12] was 100%. It also gave a residual activity [13] of 100%, a residual activity [14] of 100% and an inhibition [15] of 74.6%. It also gave a residual activity [16] of 100%, a residual activity [17] of 100% and a residual activity [18] of 100%. For the same compound, the residual activity [19] was 100%, the residual activity [20] was 100% and the inhibition [21] was -2.18%. It also gave a residual activity [22] of 100%, a residual activity [23] of 83% and a residual activity [24] of 100%. For the same compound, the residual activity [25] was 100%, the residual activity [26] was 100% and the residual activity [27] was 100%. For the same compound, the residual activity [28] was 100%, the residual activity [29] was 100% and the residual activity [30] was 100%. For the same compound, the residual activity [31] was 100%, the residual activity [32] was 86% and the residual activity [33] was 100%. The residual activity [34] was 99%, the residual activity [35] was 100% and the residual activity [36] was 94%. For the same compound, the residual activity [37] was 100%, the residual activity [38] was 92% and the residual activity [39] was 78%. It also gave a residual activity [40] of 100%, an inhibition [41] of 70.1% and a residual activity [42] of 100%. For the same compound, the inhibition [43] was 1.47%, the residual activity [44] was 100% and the residual activity [45] was 100%.
`FC(F)(F)c1ccc2c(c1)nc(-c1cccnc1)n2C1CC1` [MSD-CYP11B2-Negative-control] gave a residual activity [1] of 100%, a residual activity [2] of 100% and a residual activity [3] of 100%. It also gave a residual activity [4] of 100%, a residual activity [5] of 81% and a residual activity [6] of 65%. The residual activity [7] was 100%, the residual activity [8] was 100% and the residual activity [9] was 100%. For the same compound, the residual activity [10] was 100%, the residual activity [11] was 100% and the residual activity [12] was 100%. For the same compound, the residual activity [13] was 100%, the residual activity [14] was 100% and the inhibition [15] was 6.92%. It also gave a residual activity [16] of 100%, a residual activity [17] of 100% and a residual activity [18] of 100%. It also gave a residual activity [19] of 100%, a residual activity [20] of 100% and an inhibition [21] of 0.88%. For the same compound, the residual activity [22] was 100%, the residual activity [23] was 92% and the residual activity [24] was 100%. The residual activity [25] was 100%, the residual activity [26] was 100% and the residual activity [27] was 100%. The residual activity [28] was 100%, the residual activity [29] was 100% and the residual activity [30] was 100%. The residual activity [31] was 100%, the residual activity [32] was 93% and the residual activity [33] was 100%. It also gave a residual activity [34] of 82%, a residual activity [35] of 100% and a residual activity [36] of 100%. It also gave a residual activity [37] of 89%, a residual activity [38] of 94% and a residual activity [39] of 99%. It also gave a residual activity [40] of 81%, an inhibition [41] of 13.3% and a residual activity [42] of 96%. The inhibition [43] was 15.3%, the residual activity [44] was 100% and the residual activity [45] was 100%.
